Source: patent publication US6284768A, “Src family SH2 domain inhibitors” (Boehringer Ingelheim Pharmaceuticals, Inc., priority 1999, dated 2001)

Biological target: T1, p56lck GST-SH2 (lck SH2 domain) (Homo sapiens, UniProt P06239)
T1 construct: GST (N)
Assay: Receptor-ligand equilibrium binding constants by surface plasmon resonance (biosensor), lck SH2 domain

[1] = Table 2, compounds of formula (III)
[2] = Table 1, compounds of formula (II)

T1 sequence (P06239 127-224 limits assumed): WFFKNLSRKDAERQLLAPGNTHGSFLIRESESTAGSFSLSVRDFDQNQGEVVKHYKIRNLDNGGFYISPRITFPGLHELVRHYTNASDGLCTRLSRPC

| Kd [1] | Kd [2] | SMILES |
| --- | --- | --- |
| 6 µM |  | COc1ccc(Cn2nc(C)c(C)c(NC(=O)[C@H](Cc3ccc(CC(=O)O)cc3)NC(=O)Cc3cccc4ccccc34)c2=O)cc1 [Compound 244] |
|  | 0.51 µM | COc1ccc(Cn2ccc(C)c(NC(=O)C(Cc3ccc(C(C)(C)C(=O)O)cc3)NC(=O)C(C)(C)c3ccc(N(C)C)cc3)c2=O)cc1 (centres unmarked) [Compound 230] |
|  | 1.8 µM | COc1ccc(Cn2ccc(C)c(NC(=O)C(Cc3ccc(C(C)(C)C(=O)O)cc3)NC(=O)C(F)(F)F)c2=O)cc1 (centres unmarked) [Compound 176] |
|  | 14 µM | CCC(=O)N[C@@H](Cc1ccc(CC(=O)O)cc1)C(=O)Nc1c(C)ccn(Cc2ccc(OC)cc2)c1=O [Compound 74] |
|  | 6.2 µM | COC1CCC(Cn2ccc(C)c(NC(=O)C(Cc3ccc(C(C)(C)C(=O)O)cc3)NC(=O)C(C)(C)c3ccc4ccccc4c3)c2=O)CC1 (centres unmarked) [Compound 235] |
|  | 2.1 µM | COc1ccc(Cn2ccc(C)c(NC(=O)[C@H](Cc3ccc(NC(=O)C(=O)O)cc3)NC(=O)N(C)c3cccc4ccccc34)c2=O)cc1 [Compound 25] |
|  | 4.3 µM | Cc1ccn(Cc2ccc(C(C)C)cc2)c(=O)c1NC(=O)[C@H](Cc1ccc(C(C)(C)C(=O)O)cc1)NC(=O)Cc1cccc2ccccc12 [Compound 101] |
|  | 20 µM | COc1ccc(Cn2ccc(C)c(NC(=O)[C@H](Cc3ccc(CC(=O)O)cc3)NC(=O)C3(c4ccccc4)CCOCC3)c2=O)cc1 [Compound 80] |
|  | 2.3 µM | COc1ccc(Cn2ccc(C)c(NC(=O)[C@H](Cc3ccc(N(O)C(=O)C(=O)O)cc3)NC(=O)Cc3cccc4ccccc34)c2=O)cc1 [Compound 1, 3-[2'-(S)-(1'"-Naphthylacetyl)amino-3'-[4"-(N-oxalyl, N-hydroxy)amino]benzene]propanoylamino-1-(4-methoxybenzyl)-4-methyl-2-pyridone] |
|  | 4.9 µM | Cc1ccn(CC2CCOC2)c(=O)c1NC(=O)C(Cc1ccc(C(C)(C)C(=O)O)cc1)NC(=O)Cc1ccc2ccccc2c1 (centres unmarked) [Compound 211] |
|  | 55.7 µM | Cc1ccn(Cc2ccccn2)c(=O)c1NC(=O)[C@H](Cc1ccc(CC(=O)O)cc1)NC(=O)Cc1cccc2ccccc12 [Compound 23] |
|  | 0.35 µM | COc1ccc(Cn2ccc(C)c(NC(=O)[C@H](Cc3ccc(NC(=O)C(=O)O)cc3)NC(=O)Nc3c(C)ccc4ccccc34)c2=O)cc1 [Compound 30] |
|  | 15 µM | COc1ccc(Cn2ccc(C)c(NC(=O)[C@H](Cc3ccc(CC(=O)O)cc3)NC(=O)OCc3ccccc3)c2=O)cc1 [Compound 57] |
|  | 1.9 µM | COC1CCC(Cn2ccc(C)c(NC(=O)C(Cc3ccc(C(C)(C)C(=O)O)cc3)NC(=O)Cc3ccc4ccccc4c3)c2=O)CC1 (centres unmarked) [Compound 147] |
|  | 1.5 µM | COc1ccc(Cn2ccc(C)c(NC(=O)[C@H](Cc3ccc(CC(=O)O)cc3)NC(=O)Cc3ccc4ccccc4c3)c2=O)cc1 [Compound 59, 3-[2'-(S)-(2'"-Naphthylacetyl)amino-3'-(4"-carboxymethyl)benzene]propanoylamino-1-(4-methoxybenzyl)-4-methyl-2-pyridone] |

Second part, the compound before the results:

| SMILES | Kd [1] | Kd [2] |
| --- | --- | --- |
| COc1ccc(Cn2ncc(C)c(NC(=O)[C@H](Cc3ccc(CC(=O)O)cc3)NC(=O)Cc3cccc4ccccc34)c2=O)cc1 [Compound 243] | 35 µM |  |
| COc1ccc(Cn2ccc(C)c(NC(=O)[C@H](Cc3ccc(NC(=O)C(=O)O)cc3)NC(=O)Nc3cccc4ccccc34)c2=O)cc1 [Compound 9] |  | 64.5 µM |
| CCN(CC)c1ccc(CC(=O)N[C@@H](Cc2ccc(NC(=O)C(=O)O)cc2)C(=O)Nc2c(C)ccn(Cc3ccc(OC)cc3)c2=O)cc1 [Compound 40] |  | 1.9 µM |
| COc1ccc(Cn2ccc(C)c(NC(=O)[C@H](Cc3ccc(CC(=O)O)cc3)NC(=O)COc3cccc4c(N(C)C)cccc34)c2=O)cc1 [Compound 167] |  | 1.2 µM |
| COc1ccc(Cn2ccc(C)c(NC(=O)[C@H](Cc3ccc(CC(=O)O)cc3)NC(=O)C3(c4ccccc4)CC3)c2=O)cc1 [Compound 77] |  | 20 µM |
| Cc1ccn(CCc2ccccc2)c(=O)c1NC(=O)C(Cc1ccc(C(C)(C)C(=O)O)cc1)NC(=O)Cc1cccc2ccccc12 (centres unmarked) [Compound 199] |  | 9.1 µM |
| COc1ccc(Cn2ccc(C)c(NC(=O)[C@H](Cc3ccc(CC(=O)O)cc3)NC(=O)Cc3cc4ccccc4[nH]3)c2=O)cc1 [Compound 41] |  | 4.7 µM |
| COc1ccc(Cn2ccc(C)c(NC(=O)[C@H](Cc3ccc(CC(=O)O)cc3)NC(=O)Cc3ccccc3Oc3ccccc3)c2=O)cc1 [Compound 73] |  | > 250 µM |
| COc1ccc(Cn2ccc(C)c(NC(=O)[C@H](Cc3ccc(C(F)(F)P(=O)(O)O)cc3)NC(=O)Cc3cccc4ccccc34)c2=O)cc1 [Compound 66] |  | 0.43 µM |
| COc1ccc(Cn2ccc(C)c(NC(=O)[C@H](Cc3ccc(NC(=O)C(=O)O)cc3)NC(=O)Cc3c(C)[nH]c4ccccc34)c2=O)cc1 [Compound 28] |  | 1.1 µM |
| COc1ccc(Cn2ccc(C)c(NC(=O)[C@H](Cc3ccc(C(CO)C(=O)O)cc3)NC(=O)Cc3cccc4ccccc34)c2=O)cc1 (stereo partly drawn) [Compound 136, 3-[2'-(S)-(1'"-Naphthylacetyl)amino-3'-[4"-(1'"-(R,S)-carboxy-2'"-hydroxy)ethyl]benzene]propanoylamino-1-(4-methoxybenzyl)-4-methyl-2-pyridone] |  | 5.6 µM |
| CCCCCCn1cc(C(=O)OC)c(C)c(NC(=O)C(Cc2ccc(C(C)(C)C(=O)O)cc2)NC(=O)Cc2ccc3ccccc3c2)c1=O (centres unmarked) [Compound 240] |  | 0.74 µM |
| COc1ccc(Cn2ccc(C)c(NC(=O)[C@H](Cc3ccc(NC(=O)C(=O)O)cc3)NC(=O)Cc3ccc(-n4c(C)ccc4C)cc3)c2=O)cc1 [Compound 39] |  | 2.3 µM |
| COc1ccc(Cn2ccc(C)c(NC(=O)[C@H](Cc3ccc(CC(=O)O)cc3)NC(=O)C3(c4ccccc4)CCCCC3)c2=O)cc1 [Compound 79] |  | 11 µM |
| COc1cccc(Cn2ccc(C)c(NC(=O)[C@H](Cc3ccc(CC(=O)O)cc3)NC(=O)Cc3cccc4ccccc34)c2=O)c1 [Compound 20] |  | 19.4 µM |
| COc1ccc(Cn2cc(Br)c(C)c(NC(=O)[C@H](Cc3ccc(C(C)(C)C(=O)O)cc3)NC(=O)C(C)(C)c3ccc4ccccc4c3)c2=O)cc1 [Compound 233] |  | 0.42 µM |

| SMILES | Kd [1] | Kd [2] |
| --- | --- | --- |
| Cc1ccn(CC2CCCCC2)c(=O)c1NC(=O)[C@H](Cc1ccc(CC(=O)O)cc1)NC(=O)Cc1cccc2ccccc12 [Compound 68] |  | 12 µM |
| COc1ccc(Cn2ccc(C)c(NC(=O)[C@H](Cc3ccc(C(C)(C)C(=O)O)cc3)NC(=O)Cc3ccccc3C)c2=O)cc1 [Compound 113] |  | 0.87 µM |
| COCCOCn1ccc(C)c(NC(=O)C(Cc2ccc(C(C)(C)C(=O)O)cc2)NC(=O)Cc2cccc3ccccc23)c1=O (centres unmarked) [Compound 188] |  | 45 µM |
| COc1ccc(C(C)n2ccc(C)c(NC(=O)[C@H](Cc3ccc(CC(=O)O)cc3)NC(=O)Cc3cccc4ccccc34)c2=O)cc1 (some centres unmarked) [Compound 83] |  | 2.1 µM |
| COc1ccc(Cn2ccc(C)c(NC(=O)[C@H](Cc3ccc(CC(=O)O)cc3)NC(C)=O)c2=O)cc1 [Compound 89] |  | 19 µM |
| COc1ccc(Cn2ncc(C)c(NC(=O)C(Cc3ccc(C(C)(C)C(=O)O)cc3)NC(=O)Cc3ccccc3N)c2=O)cc1 (centres unmarked) [Compound 246] | 30 µM |  |
| Cc1ccn(Cc2ccoc2)c(=O)c1NC(=O)C(Cc1ccc(C(C)(C)C(=O)O)cc1)NC(=O)Cc1ccc2ccccc2c1 (centres unmarked) [Compound 202] |  | 2.5 µM |
| COc1ccc(Cn2ccc(C)c(NC(=O)[C@H](Cc3ccc(NC(=O)C(=O)O)cc3)NC(=O)Cc3ccccc3Br)c2=O)cc1 [Compound 38] |  | 3.2 µM |
| COc1ccc(Cn2cc(Br)c(C)c(NC(=O)[C@H](Cc3ccc(C(C)(C)C(=O)O)cc3)NC(=O)C(C)(C)c3ccc(C(F)(F)F)cc3)c2=O)cc1 [Compound 227] |  | 0.37 µM |
| Cc1ccn(Cc2ccc(C(C)C)cc2)c(=O)c1NC(=O)[C@H](Cc1ccc(CC(=O)O)cc1)NC(=O)Cc1cccc2ccccc12 [Compound 54] |  | > 500 µM |
| Cc1ccn(CCCCC(C)C)c(=O)c1NC(=O)C(Cc1ccc(C(C)(C)C(=O)O)cc1)NC(=O)OCc1ccccc1 (racemic) [Compound 146, 3-[2'-(R,S)-Benyloxycarbonylamino-3'-[4"-(1'"-carboxy-1'"-methyl)ethyl]benzene]propanoylamino-1-(5-methylhexyl)-4-methyl-2-pyridone] |  | 13 µM |
| COc1ccc(Cn2ccc(C)c(NC(=O)C(Cc3ccc(C(C)(C)C(=O)O)cc3)N(C)C(=O)Cc3ccc4ccccc4c3)c2=O)cc1 (racemic) [Compound 152, 3-[2'-(R,S)-(N-Methyl-N-(2""-naphthylacetyl)amino-3'-[4"-(1'"-carboxy-1'"-methyl)ethyl]benzene]propanoylamino-1-(4-methoxybenzyl)-4-methyl-2-pyridone] |  | 4.5 µM |
| COc1ccc(C(C)n2ccc(C)c(NC(=O)[C@H](Cc3ccc(CC(=O)O)cc3)NC(=O)C(C)(C)C)c2=O)cc1 (some centres unmarked) [Compound 82] |  | 32 µM |
| Cc1ccn(Cc2ccc(O)cc2)c(=O)c1NC(=O)[C@H](Cc1ccc(C(C)(C)C(=O)O)cc1)NC(=O)C(C)(C)c1cccc2ccccc12 [Compound 134] |  | 5.7 µM |
| COCCOCCn1ccc(C)c(NC(=O)C(Cc2ccc(C(C)(C)C(=O)O)cc2)NC(=O)Cc2ccc3ccccc3c2)c1=O (centres unmarked) [Compound 143] |  | 6 µM |
| COc1ccc(Cn2cc(I)c(C)c(NC(=O)C(Cc3ccc(C(C)(C)C(=O)O)cc3)NC(=O)Cc3ccc4ccccc4c3)c2=O)cc1 (racemic) [Compound 229, 3-[2'-(R,S)-(2""-Naphthylacetyl)amino-3'4"-(1'"-carboxy-1'"-methyl)ethyl]benzene]propanoylamino-5-iodo-1-(4-methoxybenzyl)-4-methyl-2-pyridone] |  | 0.14 µM |
